# Entries after “also recorded” stand apart in the source; their conditions may differ.
# Assays:
# Assay type in all cases: physicochemical
# [1] = pKa of the compound of formula (I)
# From the text: (§1) The solubility of drugs in the acidic environment of the gastrointestinal tract is a prerequisite for their transmembrane transport and absorption into the human body to exert efficacy. Therefore, the very low solubility of the compound limits its use for development as a drug candidate.
# [2] = Equilibrium solubility in media with different pH values (shaking 72 h, 37° C.); details: for solubility thermodynamic at 72 h: thermodynamic from solid
# [3] = Compatibility test of API and excipients (strong light, high temperature, high humidity, 17 days)
# [4] = Related substances of pilot tablet batches and API (area normalization); details: batch after manufacture
# From the text: The amount of impurities in each batch of samples were relatively stable and no significant change in the amount and type of impurities was observed after the tableting process.
# [5] = Solubility in solvents (descriptive)
# From the text: as §1
# [6] = Log D of the compound of formula (I)
# From the text: as §1
# [7] = normal temperatur, 92.5% RH-17 Days
smiles,measurement,setting,value
"O=C([O-])c1ccc(Oc2ccc3cc(OCc4c(-c5c(Cl)cccc5Cl)noc4C4CC4)ccc3c2)nc1.[Na+] [COMPOUND I, 6-(6-(((5-cyclopropyl-3-(2,6-dichlorophenyl)isoxazol-4-yl)methoxy)naphthalene-2-yl)oxy) sodium nicotinate]",pKa,[1],3.76
same,solubility thermodynamic at 72 h,"[2]; aqueous buffer, pH 6.0, 37° C.",1.5 µg/mL
same,solubility thermodynamic at 72 h,"[2]; aqueous buffer, pH 6.8, 37° C.",217 µg/mL
same,solubility thermodynamic at 72 h,"[2]; aqueous buffer, pH 7.0, 37° C.",365 µg/mL
same,solubility thermodynamic at 72 h,"[2]; aqueous buffer, pH 8.0, 37° C.",20400 µg/mL
same,solubility (in words),[2]; low pH (pH 1.0-5.0),almost insoluble
same,solubility (in words),"[2]; low pH (pH 1.0-5.0), listed as compound of formula (I)",practically insoluble
same,solubility (in words),[2]; pH 6.8,very slightly soluble
same,solubility (in words),[2]; pure water,sparingly soluble; also recorded: slightly soluble
same,solubility thermodynamic at 72 h,"[2]; water, pH 9.3, water, H2O (The final pH was around 9.3), 37° C.",22300 µg/mL
same,Related substances (%) COMPOUND I-B,[3]; 0 Day,0.2869%
same,Related substances (%) COMPOUND I-IM1,[3]; 0 Day,0.2264%
same,Related substances (%) Other maximum impurities,[3]; 0 Day,0.1001%
same,Related substances (%) Total impurities,[3]; 0 Day,1.4056%
same,Related substances (%) COMPOUND I-B,"[3]; 25° C., 4500Lx-17 Days",0.2896%
same,Related substances (%) COMPOUND I-IM1,"[3]; 25° C., 4500Lx-17 Days",0.2338%
same,Related substances (%) Other maximum impurities,"[3]; 25° C., 4500Lx-17 Days",0.1135%
same,Related substances (%) Total impurities,"[3]; 25° C., 4500Lx-17 Days",1.4901%
same,Related substances (%) COMPOUND I-B,[3]; 60° C.-17 Days,0.2964%
same,Related substances (%) COMPOUND I-IM1,[3]; 60° C.-17 Days,0.2278%
same,Related substances (%) Other maximum impurities,[3]; 60° C.-17 Days,0.1158%
same,Related substances (%) Total impurities,[3]; 60° C.-17 Days,1.4686%
same,Related substances (%) COMPOUND I-B,[3]; [7],0.2836%
same,Related substances (%) COMPOUND I-IM1,[3]; [7],0.2318%
same,Related substances (%) Other maximum impurities,[3]; [7],0.1124%
same,Related substances (%) Total impurities,[3]; [7],1.4400%
same,total impurity fluctuations of related substances,"[3]; strong light, high temperature and high humidity, compared with 0 day",less than 0.5%
same,COMPOUND I-C,[4]; criterion NMT 0.15%,Not detected
same,COMPOUND I-IM1,[4]; criterion NMT 0.15%,0.12%
same,COMPOUND I-IM2,[4]; criterion NMT 0.15%,0.12%
same,Any individual unspecified impurity,[4]; criterion NMT 0.2%,0.048%
same,COMPOUND I-B,[4]; criterion NMT 0.20%,0.015%
same,Total impurities,[4]; criterion NMT 2.0%,0.47%
same,solubility,[5]; 0.01 mol/L sodium hydroxide solutions,practically insoluble
same,solubility,"[5]; N, N-dimethylformamide",soluble
same,solubility,[5]; acetonitrile,practically insoluble
same,solubility,[5]; dimethyl sulfoxide,soluble
same,solubility,[5]; ethyl acetate,practically insoluble
same,solubility,[5]; methanol,soluble
same,solubility,[5]; tetrahydrofuran,practically insoluble
same,solubility,[5]; water,practically insoluble
same,logD,[6],5.76

# — patent US20250009726A1, “A PHARMACEUTICAL COMPOSITION OF FXR AGONIST AND ITS PREPARATION METHOD” (GANNEX PHARMA CO., LTD., priority 2021, published 2025)
